The experiment has as its system L1210 leukemia ip in BDF1 mice, survival T/C. Nature of the experiment: NCI In Vivo Anticancer Drug Screen. Data for tumor model L1210 Leukemia (intraperitoneal) in B6D2F1 (BDF1) mice. The settings on record: endpoint: mean survival time, higher = longer survival. In short, it runs like this:
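Value reflects the ratio of survival in compound-treated mice to survival in vehicle-treated controls, with both groups carrying the same transplanted tumor.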

[1] abbreviates: dose: 100.0 mg/kg/injection, schedule: Q04DX002 (ip), vehicle: Klucel (hydroxypropylcellulose) (HPC).
Setting [2] is: dose: 200.0 mg/kg/injection, schedule: Q04DX002 (ip), vehicle: Klucel (hydroxypropylcellulose) (HPC).
Where [3] appears, read: dose: 400.0 mg/kg/injection, schedule: Q04DX002 (ip), vehicle: Klucel (hydroxypropylcellulose) (HPC).
Where [4] appears, read: dose: 75.0 mg/kg/injection, schedule: Q04DX003 (ip), vehicle: Klucel (hydroxypropylcellulose) (HPC).
Setting [5] is: dose: 150.0 mg/kg/injection, schedule: Q04DX003 (ip), vehicle: Klucel (hydroxypropylcellulose) (HPC).
Setting [6] is: dose: 300.0 mg/kg/injection, schedule: Q04DX003 (ip), vehicle: Klucel (hydroxypropylcellulose) (HPC).
The mark [7] stands for this setting: dose: 100.0 mg/kg/injection, schedule: Q01DX001 (ip), vehicle: saline.
The mark [8] stands for this setting: dose: 200.0 mg/kg/injection, schedule: Q01DX001 (ip), vehicle: saline.
The mark [9] stands for this setting: dose: 400.0 mg/kg/injection, schedule: Q01DX001 (ip), vehicle: saline.
[10] abbreviates: dose: 100.0 mg/kg/injection, schedule: Q01DX001 (ip), vehicle: Klucel (hydroxypropylcellulose) (HPC).
[11] abbreviates: dose: 200.0 mg/kg/injection, schedule: Q01DX001 (ip), vehicle: Klucel (hydroxypropylcellulose) (HPC).
Where [12] appears, read: dose: 400.0 mg/kg/injection, schedule: Q01DX001 (ip), vehicle: Klucel (hydroxypropylcellulose) (HPC).
Setting [13] is: dose: 100.0 mg/kg/injection, schedule: Q01DX001 (ip), vehicle: carboxymethylcellulose (CMC).
Where [14] appears, read: dose: 200.0 mg/kg/injection, schedule: Q01DX001 (ip), vehicle: carboxymethylcellulose (CMC).
The mark [15] stands for this setting: dose: 400.0 mg/kg/injection, schedule: Q01DX001 (ip), vehicle: carboxymethylcellulose (CMC).
Where [16] appears, read: dose: 100.0 mg/kg/injection, schedule: Q04DX003 (ip), vehicle: Klucel (hydroxypropylcellulose) (HPC).
[17] abbreviates: dose: 200.0 mg/kg/injection, schedule: Q04DX003 (ip), vehicle: Klucel (hydroxypropylcellulose) (HPC).
The mark [18] stands for this setting: dose: 200.0 mg/kg/injection, schedule: Q04DX003 (ip), vehicle: saline with Tween-80.
Setting [19] is: dose: 400.0 mg/kg/injection, schedule: Q04DX003 (ip), vehicle: saline with Tween-80.
[20] abbreviates: dose: 100.0 mg/kg/injection, schedule: Q01DX009 (ip), vehicle: saline with Tween-80.
The mark [21] stands for this setting: dose: 100.0 mg/kg/injection, schedule: Q04DX003 (ip), vehicle: saline with Tween-80.
[22] abbreviates: dose: 100.0 mg/kg/injection, schedule: Q01DX009 (ip), vehicle: saline.
Setting [23] is: dose: 200.0 mg/kg/injection, schedule: Q01DX009 (ip), vehicle: saline.
Setting [24] is: dose: 400.0 mg/kg/injection, schedule: Q01DX009 (ip), vehicle: saline.
[25] abbreviates: dose: 50.0 mg/kg/injection, schedule: Q01DX001 (ip), vehicle: Klucel (hydroxypropylcellulose) (HPC).

Several values for one entry are separate records, joined by “and”; a condition that tells them apart may be missing. Equal values may be shown once. Toxic doses and inconclusive results are not listed. Square brackets hold non-standard residues; d marks the D form. Peptide text beside a SMILES is read from it. * marks the point of attachment. ξ: configuration not given here. ξL = CC(C)CC(N)C(=O)O; ClAc = O=C(CCl)*

T/C data for 25 molecules are collected here from PubChem BioAssay AID248 (DTP/NCI, 2004).

For `COc1ccc(/C=C2\N=C(c3cc(OC)c(OC)c(OC)c3)OC2=O)cc1`, the T/C under setting [1] is 95 % of control, the T/C under setting [2] is 98 % of control and the T/C under setting [3] is 88 % of control.
As for `O=S(=O)(Nc1cc(S(=O)(=O)c2ccccc2)c(NS(=O)(=O)c2ccccc2)c(Cl)c1Cl)c1ccccc1`, the T/C reads like this: under setting [4], 103 % of control; under setting [5], 92 % of control; under setting [6], 95 % of control.
In the case of `CN(C)c1ccc(C=Nc2ccc([N+](=O)[O-])cc2O)cc1`, the T/C reads like this: under setting [7], 97 % of control; under setting [8], 95 % of control; under setting [9], 92 % of control.
The matching figures for `CC(C)(C)NC(=O)Nc1ccc(Cl)c(Cl)c1`: 97 % of control, 100 % of control and 95 % of control.
Consider `COC(=O)c1cc2c(cc1N=Cc1ccccc1Cl)OCO2`, for which the T/C is 101 % of control under setting [4]; 97 % of control under setting [10]; 98 % of control under setting [5]; 95 % of control under setting [11]; 97 % of control under setting [6]; 95 % of control under setting [12].
Regarding `CC(OC(=O)CC(=O)CCl)c1ccccc1` (stereo unspecified), the T/C runs as follows: under setting [1], 102 % of control; under setting [2], 98 % of control; under setting [3], 87 % of control.
For the molecule `CCCCN(C)N=Nc1ccccc1C(=O)NN`, the T/C was 96 % of control under setting [13], 107 % of control under setting [14] and 113 % of control under setting [15].
For the molecule `CN(C)c1ccc(C=Nc2cc(Cl)ccc2Cl)cc1`, the T/C under setting [16] is 89 % of control; the T/C under setting [17] was 88 % of control; the T/C (dose: 400.0 mg/kg/injection, schedule: Q04DX003 (ip), vehicle: Klucel (hydroxypropylcellulose) (HPC)) is 89 % of control.
With `COC1=NS(=O)(=O)C2CCCC/C=C\C2O1` (stereo unspecified), the T/C runs as follows: (dose: 150.0 mg/kg/injection, schedule: Q04DX002 (ip), vehicle: Klucel (hydroxypropylcellulose) (HPC)) 110 % of control; (dose: 300.0 mg/kg/injection, schedule: Q04DX002 (ip), vehicle: Klucel (hydroxypropylcellulose) (HPC)) 103 % of control.
Regarding `O=C(Nc1ccccc1-c1ccc([N+](=O)[O-])cc1)c1cccc2ccccc12`, the T/C was 87 % of control under setting [18] and 90 % of control under setting [19].
For `O=C(O)c1cc(C(=O)O)cc(S(=O)(=O)F)c1`, the T/C by setting is: under setting [20], 92 % of control; under setting [21], 91 % of control; (dose: 200.0 mg/kg/injection, schedule: Q01DX009 (ip), vehicle: saline with Tween-80) 88 % of control; under setting [18], 86 % of control; (dose: 400.0 mg/kg/injection, schedule: Q01DX009 (ip), vehicle: saline with Tween-80) 97 % of control; under setting [19], 99 % of control.
Turning to `CC(=O)Nc1nc(C=O)cc(=O)[nH]1`, the T/C reads like this: under setting [10], 100 % of control; (dose: 100.0 mg/kg/injection, schedule: Q01DX001 (ip), vehicle: other) 86 % of control; under setting [11], 104 % of control; under setting [12], 103 % of control; (dose: 400.0 mg/kg/injection, schedule: Q01DX001 (ip), vehicle: other) 91 % of control.
Turning to `Cc1ccc2c(c1)C(c1ccccc1)(c1ccccc1)OC2`, the T/C is 101 % of control (dose: 50.0 mg/kg/injection, schedule: Q01DX001 (ip), vehicle: carboxymethylcellulose (CMC)); 95 % of control under setting [13]; 89 % of control under setting [14]; 101 % of control under setting [15].
`CCOC(=O)C(CC1OCCO1)C1=NC(C)(C)CC(C)O1` (stereo unspecified): the T/C under setting [22] was 96 % of control; the T/C (dose: 100.0 mg/kg/injection, schedule: Q04DX003 (ip), vehicle: saline) is 106 % of control; the T/C under setting [23] is 100 % of control; the T/C (dose: 200.0 mg/kg/injection, schedule: Q04DX003 (ip), vehicle: saline) is 92 % of control; the T/C under setting [24] is 96 % of control; the T/C (dose: 400.0 mg/kg/injection, schedule: Q04DX003 (ip), vehicle: saline) was 92 % of control.
On to `O=S(c1ccc(Cl)cc1)N(OCc1ccccc1)S(=O)c1ccc(Cl)cc1` (stereo unspecified), for which the T/C was 107 % of control under setting [25], 100 % of control under setting [10] and 100 % of control under setting [11].
Turning to `COc1cccc(CC(=O)C(=O)O)c1`, the T/C is, setting by setting: (dose: 50.0 mg/kg/injection, schedule: Q01DX009 (ip), vehicle: Klucel (hydroxypropylcellulose) (HPC)) 98 % of control; (dose: 100.0 mg/kg/injection, schedule: Q01DX009 (ip), vehicle: Klucel (hydroxypropylcellulose) (HPC)) 90 % of control; under setting [16], 97 % of control; (dose: 200.0 mg/kg/injection, schedule: Q01DX009 (ip), vehicle: Klucel (hydroxypropylcellulose) (HPC)) 95 % of control; under setting [17], 98 % of control.
In the case of `NC(N)=NCCc1ccc(Cl)cc1`, the T/C under setting [25] was 102 % of control.
In the case of `CC(C)CC(NC(=O)CCl)C(=O)NCC(=O)O` (stereo unspecified) (ClAc-[ξL]-Gly-OH), the T/C was 94 % of control under setting [20], 101 % of control under setting [21], 95 % of control under setting [18] and 103 % of control under setting [19].
`CC(C)(C)c1ccc(S(=O)(=O)C/C=C/COc2ccccc2)cc1`: the T/C is 91 % of control (dose: 75.0 mg/kg/injection, schedule: Q01DX009 (ip), vehicle: Klucel (hydroxypropylcellulose) (HPC)) and 98 % of control (dose: 150.0 mg/kg/injection, schedule: Q01DX009 (ip), vehicle: Klucel (hydroxypropylcellulose) (HPC)).
`COc1cccc(NC(=O)N(CCCl)N=O)c1`: the T/C is 122 % of control (dose: 4.5 mg/kg/injection, schedule: Q01DX001 (ip), vehicle: carboxymethylcellulose (CMC)); 159 % of control (dose: 18.0 mg/kg/injection, schedule: Q01DX001 (ip), vehicle: carboxymethylcellulose (CMC)); 151 % of control (dose: 26.0 mg/kg/injection, schedule: Q01DX001 (ip), vehicle: carboxymethylcellulose (CMC)); 188 % of control (dose: 40.0 mg/kg/injection, schedule: Q01DX001 (ip), vehicle: carboxymethylcellulose (CMC)); 87 % of control (dose: 60.0 mg/kg/injection, schedule: Q01DX001 (ip), vehicle: carboxymethylcellulose (CMC)); 87 % of control (dose: 93.0 mg/kg/injection, schedule: Q01DX001 (ip), vehicle: carboxymethylcellulose (CMC)).
As for `O=Cc1ccc([N+](=O)[O-])cc1Cl`, the T/C was 111 % of control (dose: 75.0 mg/kg/injection, schedule: Q01DX001 (ip), vehicle: other); 94 % of control (dose: 150.0 mg/kg/injection, schedule: Q01DX001 (ip), vehicle: other); 97 % of control (dose: 300.0 mg/kg/injection, schedule: Q01DX001 (ip), vehicle: other).
As for `O=Nc1ccc(O)cc1Cl`, the T/C under setting [10] was 103 % of control and 88 % of control; the T/C under setting [11] is 117 % of control; the T/C under setting [12] is 95 % of control and 103 % of control.
As for `CCOC(=O)C1C(=O)N(O)c2cnccc21` (stereo unspecified), the T/C under setting [7] is 107 % of control, the T/C under setting [8] was 107 % of control and the T/C under setting [9] is 88 % of control.
As to `CCCCNC(=O)c1ccc(C(=O)c2ccc(C(=O)NCCCC)c(C(=O)O)c2)cc1C(=O)O`, the T/C under setting [1] is 90 % of control, the T/C under setting [2] was 87 % of control and the T/C under setting [3] was 87 % of control.
As to `O=S(=O)(O)c1ccncc1`, the T/C under setting [7] was 96 % of control; the T/C under setting [22] is 96 % of control; the T/C under setting [8] was 91 % of control; the T/C under setting [23] is 87 % of control; the T/C under setting [9] is 88 % of control; the T/C under setting [24] is 96 % of control.
